Results from patent publication US10792236B2, “Dentifrice comprising zinc-amino acid complex” (Colgate-Palmolive Company, priority 2012, dated 2020).
Values joined by “and” are separate entries in the source; they are usually repeats but may differ in a detail not shown here. Equal entries are not always repeated.

Experiments:
[1] = pH of ZLC neat solution and final diluted samples; assay type: physicochemical; conditions: for final pH value: diluted sample
Method: (§1) A neat solution of ZLC is prepared by 1), reacting 0.5 mole of ZnO powder with 1 mole of lysine HCl in 1 liter of water at room temperature for about 2 hours, and 2) collecting the supernatant through centrifugation followed by filtration using a 0.45 micron membrane. The neat solution has a zinc concentration of 2.39% by weight, and a pH of about 7.03.
(§2) Dilution experiment is conducted by mixing the neat solution with deionized water. The neat solution is diluted by 2×, 4×, 6×, 7×, 8×, 10×, 12×, 16×, 20×, 24×, 28×, and 32×, corresponding to initial zinc concentrations of 1.20%, 0.598%, 0.398%, 0.341%, 0.299%, 0.239%, 0.199%, 0.149%, 0.120%, 0.0996%, 0.0854%, 0.0747%, by weight, respectively. The diluted samples are kept at 37° C., and the rates at which flocculation/precipitation occurred are monitored.
pH values of final diluted samples are suitable for oral care applications. […] These pH values were well within the range of 5.5 to 10, which defines the suitable range for oral care formulations.

[2] = Deposition/occlusion assay on dentine slices, confocal imaging; design: species or system human
Method: The deposition/occlusion assay is conducted using human dentine slices and the neat solution of Example 5. The dentine slices were prepared by cutting human tooth into thin dentine sections of about 800 microns in thickness, choosing a test side, sanding said test side using a sandpaper of about 600 grit, polishing said test side using a Buehler polishing cloth and 5 micron Buehler aluminum oxide, acid-etching said dentine section in 1% (by weight) citric acid solution for about 20 seconds, sonicating said dentine section for 10 minutes, and storing said dentine section in phosphate buffered saline (PBS, pH 7.4).
For treatment, the neat solution is diluted 16-fold with water, yielding a treatment solution with initial zinc concentration of about 0.149% by weight. The dentine section is immersed in the treatment solution for 1 hour at 37° C. The treated dentine section is then removed from the treatment solution, and rinsed 4 times, each time with 1 mL of PBS. The dentine section is then dried using a paper-based tissue and examined under confocal microscope in both XYZ and XYZ modes. Subsequent treatments are conducted in the same manner.
Dentine sections, as prepared in Example 6, are repeatedly treated with ZLC dilutions with initial zinc concentration of 0.0747% by weight. […] The dentine section is examined under the confocal microscope after each treatment.

[3] = Dilution experiment of ZLC neat solution: visible flocculation/precipitation at 37° C.; assay type: physicochemical
Method: Various dilutions of ZLC are prepared to evaluate its efficiency in producing visible precipitates and/or flocculation, which can be delivered in situ onto an oral surface or into a dental opening, such as open tubules.
as §1, §2

final pH value ([1]; initial zinc concentration 0.0747%): 7.99
final pH value ([1]; initial zinc concentration 0.0854%): 8.13
final pH value ([1]; initial zinc concentration 0.0996%): 8.11
final pH value ([1]; initial zinc concentration 0.120%): 7.97
final pH value ([1]; initial zinc concentration 0.149%): 7.99
final pH value ([1]; initial zinc concentration 0.199 wt %): 6.80
final pH value ([1]; initial zinc concentration 0.239%): 6.70
pH ([1]; neat solution, zinc 2.39% by weight): about 7.03
initial zinc concentration of additional sample showing flocculation ([3]; two hours after mixing): 0.299%
initial zinc concentrations of dilutions with visible flocculation ([3]; within 30 minutes from mixing with water): 0.149% and 0.199%
Substance: [Zn(C6H14N2O2)2Cl]^+ Cl^− [ZLC]
deposition/occlusion on dentine surface ([2]; 4 consecutive treatments, initial zinc 0.0747%, 10 minutes at 37° C. each): significant surface deposition
deposition/occlusion on dentine surface ([2]; 12 consecutive treatments, initial zinc 0.0747%, 10 minutes at 37° C. each): complete surface coverage
visible precipitation during treatment ([2]; 32-fold dilution, initial zinc 0.0747%, 10 minutes at 37° C.): no precipitation is observed by naked eyes
thickness of surface deposits ([2]; after second treatment, 16-fold dilution, zinc about 0.149%): ≥ 10 microns
thickness of surface deposits ([2]; after third treatment, 16-fold dilution, zinc about 0.149%): ≥ 25 microns
deposition/occlusion on dentine surface ([2]; first treatment, neat solution diluted 16-fold, zinc about 0.149%, 1 hour at 37° C.): noticeable deposition
deposition/occlusion on dentine surface ([2]; second treatment, 16-fold dilution, zinc about 0.149%, 1 hour at 37° C. each): complete surface coverage, including blocking of substantially all tubule openings
deposition/occlusion on dentine surface ([2]; third treatment, 16-fold dilution, zinc about 0.149%, 1 hour at 37° C. each): complete surface coverage and complete blocking of tubule openings
samples with flocculation and/or precipitation ([3]; after a total of 19 hours): all samples except the one with initial zinc concentration of 1.20%
